{"source": "patent US12209084B2", "about": "“Serotonin 5-HT2B inhibitory compounds” (Zoetis Services LLC, priority 2021, dated 2025)", "data": [{"biological_target": "T1, canine 5-HT2B receptor (Canis lupus familiaris, UniProt Q50DZ8)", "T1 construct": "expressed in transfected cells; host or cells: CHO-K1", "T1 sequence (Q50DZ8 1-434)": "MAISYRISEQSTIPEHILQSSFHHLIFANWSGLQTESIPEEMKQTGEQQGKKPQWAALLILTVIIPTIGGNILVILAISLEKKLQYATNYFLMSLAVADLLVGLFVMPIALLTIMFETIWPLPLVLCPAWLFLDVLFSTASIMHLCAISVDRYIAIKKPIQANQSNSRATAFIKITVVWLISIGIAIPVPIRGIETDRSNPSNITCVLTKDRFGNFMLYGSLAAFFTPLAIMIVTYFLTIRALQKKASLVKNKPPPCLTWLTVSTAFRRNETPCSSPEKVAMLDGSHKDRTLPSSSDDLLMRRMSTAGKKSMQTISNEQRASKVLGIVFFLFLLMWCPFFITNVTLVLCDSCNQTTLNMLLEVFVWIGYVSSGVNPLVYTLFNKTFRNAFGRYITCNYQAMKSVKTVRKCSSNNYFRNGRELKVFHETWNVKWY", "experiment": "Canine 5-HT2B (c5-HT2B) in-vitro assay (FLIPR calcium response, antagonist mode)", "type": "cell-based", "details": "CHO-K1 cells stably expressing the canine 5-HT2B receptor; intracellular calcium response (FLIPR Calcium 5); inhibition of EC80 concentration of serotonin after 10 minute antagonist incubation; read-out: Compound Receptor IC50 Affinities for c5-HT2B", "experimental": "Canine 5-HT2B (c5-HT2B) In-Vitro Assay\nCHO-K1 cells stably expressing the canine 5-HT2B receptor were seeded at 20,000 cells per well in 20 μl culture media (DMEM with GlutaMAX™ high glucose+5% dialyzed FBS+10 mM HEPES+1×MEM Non-Essential Amino Acids of a 384-well black plate with clear bottom for at least 18 hours at 37° C. and 5% CO2. The cell plate was loaded with 20 μl/well of the FLIPR© Calcium 5 Assay kit prepared in HBSS containing calcium and magnesium supplemented with 20 mM HEPES and 5 mM Probenecid at pH 7.4 and incubated at 37° C. and 5% CO2 for 30 minutes and then an additional 30 minutes at room temperature. The intracellular calcium response was measured using the FLIPR® Tetra instrument measuring the kinetic response of the calcium 5 dye at an excitation wavelength of 470-495 nm and emission wavelength of 515-575 nm at room temperature. The cells were initially challenged with a 5× concentration of the antagonist (10 μl/well) after an initial baseline recording and the calcium response was recorded for almost 2 minutes. After the completion of the initial antagonist challenge, the cell plate was incubated at room temperature in the FLIPR Tetra® instrument for 10 minutes. Finally, a second kinetic assay was performed after the 10 minute incubation at room temperature to measure the inhibitory response of the EC80 concentration of serotonin (15 μl/well) after an initial baseline recording. The IC50 concentration was determined for each antagonist tested.\nIn accordance with the in-vitro assay described above, the IC50 affinities for the c5-HT2B receptors for the compounds of the invention are provided in Table 1.", "units": {"IC50": "nM"}, "values": [{"smiles": "O=C(N[C@@H]1C[C@H]2CC[C@@H](C1)N2Cc1ccccc1)c1ccc2cc(C(F)(F)F)[nH]c2c1", "note": "[Example 20, N-((1R,3s,5S)-8-benzyl-8-azabicyclo[3.2.1]octan-3-yl)-2-(trifluoromethyl)-1H-indole-6-carboxamide]", "IC50": 21}, {"smiles": "O=C(N[C@@H]1C[C@H]2CC[C@@H](C1)N2Cc1ccccc1)c1ccc2cc[nH]c2c1", "note": "[Example 1, N-((1R,3s,5S)-8-benzyl-8-azabicyclo[3.2.1]octan-3-yl)-1H-indole-6-carboxamide]", "IC50": 0.41}, {"smiles": "O=C(N[C@@H]1C[C@H]2CC[C@@H](C1)N2Cc1ccns1)c1ccc2cc[nH]c2c1", "note": "[Example 25, N-((1R,3s,5S)-8-(isothiazol-5-ylmethyl)-8-azabicyclo[3.2.1]octan-3-yl)-1H-indole-6-carboxamide]", "IC50": 1.4}, {"smiles": "O=C(N[C@@H]1C[C@H]2CC[C@@H](C1)N2Cc1cccs1)c1ccc2cc[nH]c2c1", "note": "[Example 7, N-((1R,3s,5S)-8-(thiophen-2-ylmethyl)-8-azabicyclo[3.2.1]octan-3-yl)-1H-indole-6-carboxamide]", "IC50": 1.3}, {"smiles": "O=C(N[C@@H]1C[C@H]2CC[C@@H](C1)N2Cc1ccccn1)c1ccc2cc[nH]c2c1", "note": "[Example 12, N-((1R,3s,5S)-8-(pyridin-2-ylmethyl)-8-azabicyclo[3.2.1]octan-3-yl)-1H-indole-6-carboxamide]", "IC50": 54.3}, {"smiles": "Cn1ccnc1CN1[C@@H]2CC[C@H]1C[C@H](NC(=O)c1ccc3cc[nH]c3c1)C2", "note": "[Example 16, N-((1R,3s,5S)-8-((1-methyl-1H-imidazol-2-yl)methyl)-8-azabicyclo[3.2.1]octan-3-yl)-1H-indole-6-carboxamide]", "IC50": 8700}, {"smiles": "O=C(N[C@@H]1C[C@H]2CC[C@@H](C1)N2Cc1nccs1)c1ccc2cc[nH]c2c1", "note": "[Example 27, N-((1R,3s,5S)-8-(thiazol-2-ylmethyl)-8-azabicyclo[3.2.1]octan-3-yl)-1H-indole-6-carboxamide]", "IC50": 108}, {"smiles": "O=C(N[C@@H]1C[C@H]2CC[C@@H](C1)N2Cc1ccc(F)cc1)c1ccc2cc[nH]c2c1", "note": "[Example 4, N-((1R,3s,5S)-8-(4-fluorobenzyl)-8-azabicyclo[3.2.1]octan-3-yl)-1H-indole-6-carboxamide]", "IC50": 0.12}, {"smiles": "N#Cc1c[nH]c2cc(C(=O)N[C@@H]3C[C@H]4CC[C@@H](C3)N4Cc3ccccc3)ccc12", "note": "[Example 19, N-((1R,3s,5S)-8-benzyl-8-azabicyclo[3.2.1]octan-3-yl)-3-cyano-1H-indole-6-carboxamide]", "IC50": 144}, {"smiles": "O=C(N[C@@H]1C[C@H]2CC[C@@H](C1)N2Cc1ccccc1)c1ccc2c3c([nH]c2c1)CCCC3", "note": "[Example 9, N-((1R,3s,5S)-8-benzyl-8-azabicyclo[3.2.1]octan-3-yl)-2,3,4,9-tetrahydro-1H-carbazole-7-carboxamide]", "IC50": 112}, {"smiles": "O=C(N[C@@H]1C[C@H]2CC[C@@H](C1)N2Cc1cnccn1)c1ccc2cc[nH]c2c1", "note": "[Example 15, N-((1R,3s,5S)-8-(pyrazin-2-ylmethyl)-8-azabicyclo[3.2.1]octan-3-yl)-1H-indole-6-carboxamide]", "IC50": 3700}, {"smiles": "O=C(N[C@@H]1C[C@H]2CC[C@@H](C1)N2Cc1ccccc1)c1ccc2ccn(-c3ccc(F)cc3)c2c1", "note": "[Example 22, N-((1R,3s,5S)-8-benzyl-8-azabicyclo[3.2.1]octan-3-yl)-1-(4-fluorophenyl)-1H-indole-6-carboxamide]", "IC50": 32}, {"smiles": "O=C(N[C@@H]1C[C@H]2CC[C@@H](C1)N2Cc1cccnc1)c1ccc2cc[nH]c2c1", "note": "[Example 13, N-((1R,3s,5S)-8-(pyridin-3-ylmethyl)-8-azabicyclo[3.2.1]octan-3-yl)-1H-indole-6-carboxamide]", "IC50": 663}, {"smiles": "O=C(N[C@@H]1C[C@H]2CC[C@@H](C1)N2Cc1ccncc1)c1ccc2cc[nH]c2c1", "note": "[Example 14, N-((1R,3s,5S)-8-(pyridin-4-ylmethyl)-8-azabicyclo[3.2.1]octan-3-yl)-1H-indole-6-carboxamide]", "IC50": 2800}, {"smiles": "O=C(N[C@@H]1C[C@H]2CC[C@@H](C1)N2Cc1ccccc1)c1ccc2ccn(-c3ccncc3)c2c1", "note": "[Example 18, N-((1R,3s,5S)-8-benzyl-8-azabicyclo[3.2.1]octan-3-yl)-1-(pyridin-4-yl)-1H-indole-6-carboxamide]", "IC50": 538}, {"smiles": "O=C(N[C@@H]1C[C@H]2CC[C@@H](C1)N2Cc1ccsn1)c1ccc2cc[nH]c2c1", "note": "[Example 26, N-((1R,3s,5S)-8-(isothiazol-3-ylmethyl)-8-azabicyclo[3.2.1]octan-3-yl)-1H-indole-6-carboxamide]", "IC50": 17.7}, {"smiles": "O=C(N[C@@H]1C[C@H]2CC[C@@H](C1)N2Cc1ccccc1)c1ccc2ccn(-c3ccc(C(F)(F)F)cc3)c2c1", "note": "[Example 21, N-((1R,3s,5S)-8-benzyl-8-azabicyclo[3.2.1]octan-3-yl)-1-(4-(trifluoromethyl)phenyl)-1H-indole-6-carboxamide]", "IC50": 1100}, {"smiles": "O=C(N[C@@H]1C[C@H]2CC[C@@H](C1)N2Cc1ccccc1)c1ccc2ccn(-c3ccccc3)c2c1", "note": "[Example 23, N-((1R,3s,5S)-8-benzyl-8-azabicyclo[3.2.1]octan-3-yl)-1-phenyl-1H-indole-6-carboxamide]", "IC50": 57}, {"smiles": "O=C(N[C@@H]1C[C@H]2CC[C@@H](C1)N2Cc1ccc(C(F)(F)F)cc1)c1ccc2cc[nH]c2c1", "note": "[Example 11, N-((1R,3s,5S)-8-(4-(trifluoromethyl)benzyl)-8-azabicyclo[3.2.1]octan-3-yl)-1H-indole-6-carboxamide]", "IC50": 92.3}, {"smiles": "O=C(N[C@@H]1C[C@H]2CC[C@@H](C1)N2Cc1ccccc1)c1ccc2cc[nH]c2n1", "note": "[Example 2, N-((1R,3s,5S)-8-benzyl-8-azabicyclo[3.2.1]octan-3-yl)-1H-pyrrolo[2,3-b]pyridine-6-carboxamide]", "IC50": 0.15}, {"smiles": "O=C(N[C@@H]1C[C@H]2CC[C@@H](C1)N2Cc1ccc(Cl)cc1)c1ccc2cc[nH]c2c1", "note": "[Example 5, N-((1R,3s,5S)-8-(4-chlorobenzyl)-8-azabicyclo[3.2.1]octan-3-yl)-1H-indole-6-carboxamide]", "IC50": 0.27}, {"smiles": "Cc1csc(CN2[C@@H]3CC[C@H]2C[C@H](NC(=O)c2ccc4cc[nH]c4c2)C3)n1", "note": "[Example 28, N-((1R,3s,5S)-8-((4-methylthiazol-2-yl)methyl)-8-azabicyclo[3.2.1]octan-3-yl)-1H-indole-6-carboxamide]", "IC50": 200}, {"smiles": "O=C(N[C@@H]1C[C@H]2CC[C@@H](C1)N2Cc1ccccc1)c1ccc2ccoc2c1", "note": "[Example 24, N-((1R,3s,5S)-8-benzyl-8-azabicyclo[3.2.1]octan-3-yl)benzofuran-6-carboxamide]", "IC50": 0.5}, {"smiles": "O=C(N[C@@H]1C[C@H]2CC[C@@H](C1)N2Cc1ccccc1)c1ccc2cn[nH]c2c1", "note": "[Example 10, N-((1R,3s,5S)-8-benzyl-8-azabicyclo[3.2.1]octan-3-yl)-1H-indazole-6-carboxamide]", "IC50": 432}, {"smiles": "O=C(N[C@@H]1C[C@H]2CC[C@@H](C1)N2Cc1ccc(Cl)cc1)c1ccc2cc[nH]c2n1", "note": "[Example 3, N-((1R,3s,5S)-8-(4-chlorobenzyl)-8-azabicyclo[3.2.1]octan-3-yl)-1H-pyrrolo[2,3-b]pyridine-6-carboxamide]", "IC50": 1.53}, {"smiles": "O=C(N[C@@H]1C[C@H]2CC[C@@H](C1)N2Cc1ccc2[nH]ccc2c1)c1ccc2cc[nH]c2c1", "note": "[Example 6, N-((1R,3s,5S)-8-((1H-indol-5-yl)methyl)-8-azabicyclo[3.2.1]octan-3-yl)-1H-indole-6-carboxamide]", "IC50": 0.31}, {"smiles": "Cc1cc2ccc(C(=O)N[C@@H]3C[C@H]4CC[C@@H](C3)N4Cc3ccccc3)cc2[nH]1", "note": "[Example 8, N-((1R,3s,5S)-8-benzyl-8-azabicyclo[3.2.1]octan-3-yl)-2-methyl-1H-indole-6-carboxamide]", "IC50": 4}, {"smiles": "O=C(N[C@@H]1C[C@H]2CC[C@@H](C1)N2c1ccccc1)c1ccc2cc[nH]c2c1", "note": "[Example 17, N-((1R,3s,5S)-8-phenyl-8-azabicyclo[3.2.1]octan-3-yl)-1H-indole-6-carboxamide]", "IC50": 8280}]}]}
